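Cultured in 96-well plates, cells were exposed to test compound for 48 hours across five concentrations. GI50 = concentration required for 50% inhibition of growth. TGI is the concentration that stops growth completely.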
What was measured:
Assay in all cases: inhibition of tumour cell growth, NCI panel, 48 h
SK-MEL-28 melanoma = tested on: SK-MEL-28 melanoma
NCI-H226 lung = tested on: NCI-H226 lung
SF-295 CNS = tested on: SF-295 CNS
MDA-MB-231 breast = tested on: MDA-MB-231 breast
K-562 leukemia = tested on: K-562 leukemia
HCT-15 colon = tested on: HCT-15 colon
T-47D breast = tested on: T-47D breast
CAKI-1 renal = tested on: CAKI-1 renal
NCI-H522 lung = tested on: NCI-H522 lung
LOX IMVI melanoma = tested on: LOX IMVI melanoma
TK-10 renal = tested on: TK-10 renal
HS 578T breast = tested on: HS 578T breast
HCC-2998 colon = tested on: HCC-2998 colon
COLO 205 colon = tested on: COLO 205 colon
M14 melanoma = tested on: M14 melanoma
A498 renal = tested on: A498 renal
SF-539 CNS = tested on: SF-539 CNS
SF-268 CNS = tested on: SF-268 CNS
SK-MEL-2 melanoma = tested on: SK-MEL-2 melanoma
SK-MEL-5 melanoma = tested on: SK-MEL-5 melanoma
NCI/ADR-RES ovarian = tested on: NCI/ADR-RES ovarian
HOP-92 NSCLC = tested on: HOP-92 NSCLC
RPMI-8226 leukemia = tested on: RPMI-8226 leukemia
SK-OV-3 ovarian = tested on: SK-OV-3 ovarian
BT-549 breast = tested on: BT-549 breast
EKVX NSCLC = tested on: EKVX NSCLC
CCRF-CEM leukemia = tested on: CCRF-CEM leukemia
MCF7 breast = tested on: MCF7 breast
UO-31 renal = tested on: UO-31 renal
KM12 colon = tested on: KM12 colon
MDA-MB-435 = tested on: MDA-MB-435
NCI-H460 lung = tested on: NCI-H460 lung
UACC-62 melanoma = tested on: UACC-62 melanoma
HOP-62 NSCLC = tested on: HOP-62 NSCLC
MOLT-4 leukemia = tested on: MOLT-4 leukemia
OVCAR-8 ovarian = tested on: OVCAR-8 ovarian
MALME-3M melanoma = tested on: MALME-3M melanoma
SNB-19 CNS = tested on: SNB-19 CNS
U251 CNS = tested on: U251 CNS
SN12C renal = tested on: SN12C renal
UACC-257 melanoma = tested on: UACC-257 melanoma
OVCAR-4 ovarian = tested on: OVCAR-4 ovarian
A549 NSCLC = tested on: A549 NSCLC
SW-620 colon = tested on: SW-620 colon
HCT-116 colon = tested on: HCT-116 colon
HT29 colon = tested on: HT29 colon
NCI-H23 lung = tested on: NCI-H23 lung
SNB-75 CNS = tested on: SNB-75 CNS
PC-3 prostate = tested on: PC-3 prostate
OVCAR-5 ovarian = tested on: OVCAR-5 ovarian
DU-145 prostate = tested on: DU-145 prostate
SR leukemia = tested on: SR leukemia
RXF 393 renal = tested on: RXF 393 renal
786-0 renal = tested on: 786-0 renal
IGROV1 ovarian = tested on: IGROV1 ovarian
ACHN renal = tested on: ACHN renal

## O=c1c2cc(-c3ccc(F)cc3F)ccc2n(Nc2ccccc2)c(=O)n1-c1cccc(C(F)(F)F)c1
SK-MEL-28 melanoma
  GI50: 1280 nM
  TGI: 4690 nM
NCI-H226 lung
  GI50: 1320 nM
  TGI: 3420 nM
SF-295 CNS
  GI50: 1830 nM
  TGI: 3820 nM
MDA-MB-231 breast
  GI50: 1780 nM
  TGI: 5620 nM
K-562 leukemia
  GI50: 717 nM
  TGI: > 100000 nM
HCT-15 colon
  GI50: 812 nM
  TGI: 2550 nM
T-47D breast
  GI50: 1400 nM
  TGI: 5370 nM
CAKI-1 renal
  GI50: 1510 nM
  TGI: 4370 nM
NCI-H522 lung
  GI50: 440 nM
  TGI: 2410 nM
LOX IMVI melanoma
  GI50: 1530 nM
  TGI: 3120 nM
TK-10 renal
  GI50: 3980 nM
  TGI: 8500 nM
HS 578T breast
  GI50: 1060 nM
  TGI: 4200 nM
HCC-2998 colon
  GI50: 2550 nM
  TGI: 6840 nM
COLO 205 colon
  GI50: 1800 nM
  TGI: 3270 nM
M14 melanoma
  GI50: 1650 nM
  TGI: 4170 nM
A498 renal
  GI50: 358 nM
  TGI: 1250 nM
SF-539 CNS
  GI50: 1570 nM
  TGI: 5640 nM
SF-268 CNS
  GI50: 1700 nM
  TGI: 7980 nM
SK-MEL-2 melanoma
  GI50: 532 nM
  TGI: 2100 nM
SK-MEL-5 melanoma
  GI50: 354 nM
  TGI: 1350 nM
NCI/ADR-RES ovarian
  GI50: 1910 nM
  TGI: 7740 nM
HOP-92 NSCLC
  GI50: 190 nM
  TGI: 679 nM
RPMI-8226 leukemia
  GI50: 460 nM
  TGI: 2570 nM
SK-OV-3 ovarian
  GI50: 1270 nM
  TGI: 3010 nM
BT-549 breast
  GI50: 1120 nM
  TGI: 2530 nM
EKVX NSCLC
  GI50: 2350 nM
  TGI: 7910 nM
CCRF-CEM leukemia
  GI50: 1970 nM
  TGI: 9760 nM
MCF7 breast
  GI50: 1810 nM
  TGI: 7440 nM
UO-31 renal
  GI50: 1980 nM
  TGI: 5960 nM
KM12 colon
  GI50: 2170 nM
  TGI: 5660 nM
MDA-MB-435
  GI50: 1520 nM
  TGI: 5040 nM
NCI-H460 lung
  GI50: 775 nM
  TGI: 4390 nM
UACC-62 melanoma
  GI50: 337 nM
  TGI: 1410 nM
HOP-62 NSCLC
  GI50: 1800 nM
  TGI: 4110 nM
MOLT-4 leukemia
  GI50: 1790 nM
  TGI: 5660 nM
OVCAR-8 ovarian
  GI50: 1230 nM
  TGI: 3720 nM
MALME-3M melanoma
  GI50: 1500 nM
  TGI: 5050 nM
SNB-19 CNS
  GI50: 931 nM
  TGI: > 100000 nM
U251 CNS
  GI50: 1740 nM
  TGI: 10300 nM
SN12C renal
  GI50: 1000 nM
  TGI: 5010 nM
UACC-257 melanoma
  GI50: 963 nM
  TGI: 3820 nM
OVCAR-4 ovarian
  GI50: 2670 nM
  TGI: > 100000 nM
A549 NSCLC
  GI50: 2960 nM
  TGI: 12700 nM
SW-620 colon
  GI50: 1510 nM
  TGI: 3550 nM
HCT-116 colon
  GI50: 1030 nM
  TGI: 2340 nM
HT29 colon
  GI50: 2840 nM
  TGI: 7740 nM
NCI-H23 lung
  GI50: 1060 nM
  TGI: 4320 nM
SNB-75 CNS
  GI50: 1400 nM
  TGI: 4860 nM
PC-3 prostate
  GI50: 1350 nM
  TGI: 5190 nM
OVCAR-5 ovarian
  GI50: 3150 nM
  TGI: 56300 nM
DU-145 prostate
  GI50: 2560 nM
  TGI: 61700 nM
SR leukemia
  GI50: 1110 nM
  TGI: 4530 nM
RXF 393 renal
  GI50: 1200 nM
  TGI: 2840 nM
786-0 renal
  GI50: 1860 nM
  TGI: 3830 nM
IGROV1 ovarian
  GI50: 1910 nM
  TGI: 13300 nM
ACHN renal
  GI50: 1810 nM
  TGI: 5310 nM

Reference: PubChem BioAssay (NCI)
